Test system: α7 integrin promoter
Test: muscle cell-based assay: α7βgal+/− myoblasts/myotubes, LacZ reporter, β-galactosidase cleavage of FDG
Set-up: species or system mouse
Details: Myotubes; for Results in a α7+/− β-galactosidase assay, Myotubes, 0.5 uM: compound at 0.5 uM; for Results in a α7+/− β-galactosidase assay, Myotubes, 1 uM: compound at 1 uM; for Results in a α7+/− β-galactosidase assay, Myotubes, 5 uM: compound at 5 uM; for Results in a α7+/− β-galactosidase assay, Myotubes, 10 uM: compound at 10 uM; for Results in a α7+/− β-galactosidase assay, Myotubes, 20 uM: compound at 20 uM; for Results in a α7+/− β-galactosidase assay, Myotubes, 40 uM: compound at 40 uM
Outline: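 Primary α7βgal+/− mouse myoblasts (LacZ knocked into α7 integrin exon 1, promoter retained), differentiated; promoter activity read as β-galactosidase conversion of non-fluorescent FDG to fluorescein. Hits followed by dose-response, western analysis and myostatin counterscreen.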

Compound | Results in a α7+/− β-galactosidase assay, Myotubes, 0.5 uM | Results in a α7+/− β-galactosidase assay, Myotubes, 1 uM | Results in a α7+/− β-galactosidase assay, Myotubes, 5 uM | Results in a α7+/− β-galactosidase assay, Myotubes, 10 uM | Results in a α7+/− β-galactosidase assay, Myotubes, 20 uM | Results in a α7+/− β-galactosidase assay, Myotubes, 40 uM
CCC(CC)C(=O)Nc1c(C(=O)N2CCN(c3ccccc3)CC2)oc2ccccc12 [drawing 479] | −0.04763 | −0.04983 | −0.2904 | −0.3853 | −0.08708 | −0.02043
Cc1nc(/C=C2\C(=O)Nc3ccccc32)c[nH]1 [drawing 480] | 0.01879 | −0.05703 | 0.093 | 0.007066 | 0.01022 | −0.04283
O=C(NCCc1ccc(Cl)cc1)C1CCCO1 (stereo not drawn) [drawing 481] | 0.008299 | −0.0666 | 0.2373 | −0.07246 | −0.08414 | −0.169
CCNC(=O)C(=O)Nc1cc2c3c(c1)CCN3C(=O)CC2 [drawing 482] | 0.05071 | −0.07574 | 0.4036 | −0.03505 | −0.1926 | −0.2686
Cc1cccc(NCC(=O)N/N=C/c2ccccn2)c1 [drawing 483] | 0.07633 | −0.04251 | 0.2712 | −0.04805 | 0.03613 | −0.1705
COc1ccc(CN2CCNC(=O)C2CC(=O)NCCc2c[nH]c3ccccc23)c(OC)c1 (stereo not drawn) [drawing 484] | −0.059 | −0.1025 | 0.1466 | −0.2654 | −0.1345 | −0.1806
O=c1c2cc(-c3ccccc3)sc2nc2n1N=C(c1ccccc1)CS2 [drawing 485] | 0.02668 | −0.1163 | 0.0299 | −0.3812 | −0.1377 | −0.1734
Nc1ncnc(NCc2ccccc2)c1[N+](=O)[O-] [drawing 486] | 0.008395 | −0.1282 | 0.2507 | −0.3338 | −0.03158 | −0.2067
O=CN1CCN(C(=O)CC(c2ccccc2)c2cc(Br)ccc2O)CC1 (stereo not drawn) [drawing 487] | −0.0643 | −0.1354 | 0.1295 | −0.2355 | −0.0629 | −0.1726
Cc1ccc2c(c1)/C(=C/c1ccco1)C(=O)N2 [drawing 488] | −0.00427 | −0.00615 | 0.07579 | −0.3334 | 0.0134 | −0.2855
O=C1CCC(C(=O)N2CCSCC2)CN1Cc1ccc(Cl)cc1 (stereo not drawn) [drawing 489] | 0.02632 | 0.1369 | 0.02663 | 0.3226 | 0.2089 | 0.5544
c1ccc(-c2cn3c4c(sc3n2)CCCC4)cc1 [drawing 490] | −0.06339 | 0.06029 | −0.3683 | −0.08198 | −0.09547 | 0.1666
COc1ccccc1CC(=O)Nc1cc(S(=O)(=O)N2CCOCC2)ccc1N1CCOCC1 [drawing 491] | 0.003263 | 0.04702 | −0.2793 | 0.1263 | −0.1143 | 0.0714
COc1ccccc1/C=C1\C(=O)Nc2ccccc21 [drawing 492] | −0.03334 | 0.08625 | −0.2626 | 0.09022 | −0.05273 | 0.2894
CN1C(=O)N(CC(=O)N2CCN(S(=O)(=O)c3ccc(Cl)s3)CC2)C(=O)C12CCCCC2 [drawing 493] | 0.02298 | 0.1534 | −0.342 | 0.1222 | −0.2548 | −0.1971
Cn1cc(CN2CCC(C(=O)Nc3cccc(-c4cscn4)c3)CC2)cn1 [drawing 494] | −0.07662 | 0.03293 | −0.2802 | 0.1352 | −0.1701 | 0.00319
O=C1Cc2ccccc2/C1=C\c1ccc([N+](=O)[O-])cc1 [drawing 495] | −0.06418 | −0.0268 | −0.312 | 0.004591 | −0.246 | −0.2389
CCCC(=O)OCC(=O)c1[nH]c(C)c(C(C)=O)c1C [drawing 496] | −0.1192 | −0.0136 | −0.3312 | −0.02935 | −0.1657 | −0.01124
CCO/C(C)=C1\C(=O)Nc2ccccc21 [drawing 497] | −0.1394 | 0.0259 | −0.3175 | −0.219 | −0.1574 | 0.04819
COc1ccc(C(=O)Nc2ccc(Cl)cn2)cc1Cl [drawing 498] | 0.01557 | −0.1102 | −0.4051 | −0.6189 | −0.2285 | −0.2585
CCOc1ccccc1NC(=O)c1cccc2c1C(=O)N(C1CCCCC1)C2 [drawing 499] | 0.0377 | −0.1345 | −0.3317 | −0.3744 | −0.1769 | −0.1762
CCOC(=O)C1CCCN(C(=O)CNS(=O)(=O)c2ccc(Br)s2)C1 (stereo not drawn) [drawing 500] | −0.02306 | 0.05901 | −0.3059 | −0.1617 | −0.03881 | −0.02855
Cc1nnc(SCC(=O)c2ccc(Br)cc2)s1 [drawing 501] | −0.07126 | 0.01886 | −0.2188 | −0.3746 | −0.08999 | 0.006174
Cn1ccc(C(=O)Nc2cccnc2Cl)n1 [drawing 502] | 0.04794 | −0.05775 | 0.0198 | 0.06627 | −0.1124 | −0.1256
CCOC(=O)c1sc(=N)n(-c2ccc(OC)cc2)c1C [drawing 503] | 0.01467 | −0.0655 | −0.3446 | −0.2817 | −0.1985 | −0.1785

Reference: patent publication US10028992B2, “Methods of treating muscular dystrophy” (BOARD OF REGENTS OF THE NEVADA SYSTEM OF HIGHER EDUCATION …, priority 2012, dated 2018)
